Source: US20220304356A1, “FUNCTIONAL FOOD COMPOSITIONS AND COSMETIC COMPOSITIONS COMPRISING GALACTO-OLIGOSACCHARIDES, OR GALACTOOLIGOSACCHARIDES AND COLLAGEN TRIPEPTIDE FOR IMPROVING IMMUNE FUNCTIONS AND SKIN CONDITION” (NEO CREMAR CO., LTD., priority 2020, published 2022)

What was measured:
Type in all cases: in vivo, SKH-1 hairless mice
[1] = test system: dorsal skin of the mice, irradiated with ultraviolet light; test: Skin water-holding capacity (Multi Probe Adapter MPA 6); conditions: UVB-irradiated mice, oral 8 weeks, compared with CON
Procedure: (§1) A total of seven experimental groups (six animals per group) were defined as a normal control group (normal, not UVB-induced), a negative control group (control, UVB-irradiated), a GOS alone treatment group (GOS 200 mg/kg, UVB-irradiated) and a CTP alone treatment group (CTP 200 mg/kg, UVB-irradiated), a GOS/CTP 1:3 mixed treatment group (GOS/CTP 50:150 mg/kg, UVB-irradiated), a GOS/CTP 1:1 mixed treatment group (100:100 mg/kg, UVB-irradiated), and a GOS/CTP 3:1 mixed treatment group (GOS/CTP 150:50 mg/kg, UVB-irradiated).
(§2) The mice were acclimated for one week, and then photo-aging was induced in the mice of six groups except for the normal control group (NOR) by exposing their dorsal skin to ultraviolet light three times a week for 8 weeks through the ultraviolet irradiation device (BLX-E254, Vilber Lourmat, France) equipped with the UVB-ultraviolet lamp (T-8M; Vilber Lourmat, France) (Hong et al., 2015). As for the dosage of ultraviolet irradiation, the irradiation dosage inside the ultraviolet irradiation device was measured by the UV light meter (UV-340; Lutron, Taiwan) and adjusted, and then the UVB dosage was controlled as shown in Table 1. […]

[2] = test system: dorsal skin of the mice, irradiated with ultraviolet light; test: Erythema value; conditions: UVB-irradiated mice, oral 8 weeks, compared with CON; no significant difference
Procedure: as §1, §2

[3] = test system: MMP2; test: qRT-PCR of skin tissue, MMP 2; conditions: compared with CON
Procedure: (§3) In order to investigate the effects of the compositions of the present disclosure on the expression of skin condition-related genes, the present inventors measured the expression levels of collagen type I, matrix metalloproteinase (MMP) 2/3/9, TIMP1/2, hyaluronidase (HYAL), and NF-K in comparison with GAPDH.
(§4) Specifically, about 100 mg of the skin tissue was collected from each mouse of the experimental groups administered the compositions of the present disclosure, and total RNA was isolated using TRIzol reagent. To the isolated RNA was added 50 μM Oligo-(dT) primer and 10 mM dNTP mix, followed by reaction at […] for 5 minutes, and then 5×RT Buffer, 0.1 M DTT, RNaseOUT, SuperScript III, and 25 mM MgCl2 were added with mixing, followed by reaction under conditions of 50° C. for 50 minutes and 85° C. for 5 minutes. RNase H was added and incubated at 37° C. for 20 minutes, thereby synthesizing cDNA from mRNA. To perform POR, 1 μL of the synthesized cDNA was mixed with primers, SYBR green gene expression master mix, and DEPO water, followed by qPCR. The expression level of each target gene was indicated as a relative expression level compared with the NOR group.

[4] = test system: TIMP1; test: qRT-PCR of skin tissue, TIMP 1; conditions: compared with CON
Procedure: as §3, §4

[5] = Short-chain fatty acid (SCFA) analysis of caecum using GC
Procedure: The caecum of the mouse was harvested and extracted with methanol, and then the extract was analyzed for SCFA by using gas chromatography (Agilent Technologies, CA, USA) equipped with GC column (DB-FFAP 123-3253, 50 m×0.32 mm×[…]). The column temperature was set to be maintained at 100° C. for 1 minute, raised to 180° C. at a rate of 8° C./min, then raised to 200° C. at a rate of 20° C./min, and then stagnant at 200° C. for 5 min. The SCFA contents in the caecum were analyzed through the standard materials of acetic acid, propionic acid, and butyric acid.

[6] = test system: intestinal microflora; test: Intestinal microflora change analysis (16S rRNA sequencing of caecum); conditions: photo-aging model, oral
Source text: The caecum of the mouse was harvested, and subjected to extraction using the i-genome clinic DNA extraction kit. The 16S rRNA library was constructed through the protocol of Illumina 16S V3˜V4 Amplicon (Illumina, San Diego, Calif., USA). The 16S rRNA V3-V4 region was amplified by the first polymerase chain reaction (PCR-1) using the DNA extract, and the PCR product was purified using Agencourt AMPure XP Beads (Beckman Coulter, Inc., Pasadena, Calif., USA), and the washed amplicons were quantified. The PCR product was used as a template for the second PCR (PCR-II) with Illumina dual index adapter sequence, and the final amplicon library was sequenced using the v3, 600 cycle kit and 301 base paired-end chemistry. Sequence data analysis was performed through QIIME 2 software, and then quality filtering was performed. […] The operational taxonomic units (OTUs) of the sequence were analyzed, and the alpha diversity analysis included the Richness, Shannon Index, and Abundance-based Coverage Estimator (ACE) indexes. […] The Kruskal-Wallis test was performed to analyze the diversity of the intestinal microflora and the difference in relative abundance, and the difference in beta diversity was analyzed by the ANOSIM and permutational multivariate analysis of variance (PERMANOVA) tests.

## collagen tripeptide [CTP]
[1]
  change in water-holding capacity before and after ultraviolet irradiation: significantly increased
[2]
  change in erythema value before and after ultraviolet irradiation: tended to decrease
[3]
  gene expression level of MMP 2: significantly decreased
[4]
  gene expression level of TIMP 1: significantly increased
[5]
  content of butyric acid: significantly increased
[5]; compared with CON
  content of valeric acid: significant increase
  total short-chain fatty acid content: tendency of increase
[5]; compared with CON, no significant difference
  content of propionic acid: tended to increase
[6]
  Firmicutes/Bacteroidetes ratio: tended to increase
